Results as given in PMC12186843, “Targeting GABAergic Hypofunction Associated with Schizophrenia: Identification of α1β2γ2GABA‑A Receptor Ligands with Neuroprotective and Antipsychotic Properties” (ACS Chemical Neuroscience, 2025).

Key:
PAMPA permeability assay = format: in vitro ADME; settings: PBS pH 7.4, 100 μM, zolpidem tested as tartrate; for Permeability Pe ± SD: 5 h
Description: PAMPA. The precoated PAMPA Plate System Gentest, obtained from Corning (Tewksbury, MA, USA), was used for the permeability study. The system includes a 96-well receiver filter plate precoated with structured phospholipid layers and a matching donor microplate. Stock solutions of the test compounds and reference drugs were prepared in PBS buffer (pH 7.4) at a final concentration of 100 μM. Each compound solution (200 μL) was added to the donor wells and incubated at room temperature for 5 h. The quantity of molecules that penetrated from the donor wells to the acceptor wells through the phospholipid membrane was determined using UPLC-MS spectrometry (Waters ACQUITY TQD system with the TQ Detector, Waters, Milford, USA) with an internal standard. Permeability coefficients (Pe, cm/s) were calculated according to the formula provided by the manufacturer.

SH-SY5Y cells [1] = experiment: ToxiLight assay (cell membrane damage); format: cell-based; settings: Table S1, 24 h
Description: Damage to the cell membrane was assessed using the bioluminescent ToxiLight bioassay (Lonza), a profound method for detecting cell toxicity. Following 24 h of treatment, 5 μL of the supernatant above the sediment was transferred to a 384-well plate (PerkinElmer). Subsequently, 20 μL of Adenylate Kinase Detection Reagent (AKDR) was added to each well. Luminescence was recorded after a 10 min incubation period using a POLARstar Omega plate reader (BMG Labtech). Results are presented as a percentage relative to the control sample (cells lysed), reflecting the proportion of dead cells compared to the control.
(§1) 1. Cytotoxicity studies for selected compounds
Table S1. The viability of the cells SH-SY5Y after treatment with tested compounds for 24 the results are expressed as a percentage of dead cells with luminescence ToxiLight Assay. The results are expressed as a per cent of control with whole lysis cells. N.C. not countable […]
Table S2. The viability of the cells SH-SY5Y after treatment with tested compounds for 24 h the results are expressed as a percentage of live cells with fluorescence PrestoBlue Assay. The results are expressed as a per cent of vehicle (DMSO). […]

α1β2γ2 GABA-A receptor = biological target: T1, α1β2γ2 GABA-A receptor (Homo sapiens, UniProt P14867+P18507); experiment: Electrophysiological studies (QPatch16X automated patch-clamp), PAM efficacy; format: cell-based
T1 construct: expressed in transfected cells

SH-SY5Y cells [2] = experiment: Intracellular calcium concentration after 6-OHDA (Fluo-4); format: cell-based, human; settings: 50 μM pretreatment 1 h, then 6-OHDA 250 μM 1 h
Description: 7 (A). Effect of 6-Hydroxydopamine (6-OHDA) on intracellular calcium concentration [Ca^2+] determined by Fluo-4 AM. After pretreatment with tested compounds (50 μM) or vehicle (0.5% DMSO, v/v) for 1 h, the cells were incubated with 6-Hydroxydopamine (6-OHDA, 250 μM) for 1 h. 6-OHDA control: cells treated with 250 μM of 6-OHDA. […]. DMSO control: cells treated with 0.5% DMSO only. Data are presented as the mean ± SD from 2–3 independent experiments. Experiments were carried on with ImageXpress Micro XLS (Molecular Devices). (B) The level of ROS generation was determined by Cell ROX dye. After pretreatment with tested compounds (50 μM) or vehicle (0.5% DMSO, v/v) for 1 h, the cells were incubated with hydrogen peroxide (H2O2, 300 μM) for 1 h. H2O2 control: cells treated with H2O2 (300 μM). DMSO control: cells treated with 0.5% DMSO only. Data are presented as the mean ± SD from 2–3 independent experiments. Experiments were carried on with the ImageXpress Micro XLS (Molecular Devices).
The SH-SY5Y human neuroblastoma cell line was maintained according to established protocols. The cells, obtained from the American Type Culture Collection (ATCC), were cultured in Dulbecco’s Modified Eagle’s Medium (DMEM, high glucose; Thermo Fisher), supplemented with 10% fetal bovine serum (Thermo Fisher), 100 IU/ml penicillin (Merck), and 100 μg/mL streptomycin (Merck). They were grown in 75 cm^2 flasks (Nunc) at 37 °C in a humidified atmosphere containing 5% CO2. For compound evaluation, SH-SY5Y cells were plated in 96-well plates (Falcon) at a density of 2 × 10^4 cells per well. The cells were allowed to adhere and grow for 24 h in an incubator set to 37 °C and 5% CO2 before starting the experiments. Stock solutions of both test and reference compounds were prepared at a concentration of 10^–2 M. A minimum of 1 mg of each compound was dissolved in dimethyl sulfoxide (DMSO). Serial dilutions were made in DMSO, then further diluted in PBS, mixed, and added to the cell culture medium.
The intracellular Ca^2+ levels were assessed using a homogeneous cell-based assay with the Fluo-4 Direct Calcium Assay Kit (Thermo Fisher). Following incubation with the tested compounds, the supernatant was discarded, and the cells were incubated with 1 μM Fluo-4/AM in FluoroBrite DMEM (Thermo Fisher) for 1 h at 37 °C. The results were expressed as a percentage relative to the control (DMSO). Fluorescence intensity was recorded using the ImageXpress Micro XLS system (Molecular Devices).

SH-SY5Y cells [3] = experiment: PrestoBlue cell viability assay; format: cell-based; settings: Table S2, 24 h
Description: Cell viability was determined using the Presto Blue reagent (ThermoFisher) following the manufacturer’s instructions.
as §1
Table S1. The viability of the cells SH-SY5Y after treatment with tested compounds for 24 the results are expressed as a percentage of dead cells with luminescence ToxiLight Assay. The results are expressed as a per cent of control with whole […]
percentage of live cells with fluorescence PrestoBlue Assay. The results are expressed as a per cent of vehicle (DMSO).

GABA-A receptor = experiment: Radioligand binding at the GABA-A receptor; parameters: species or system rat; settings: mean of two-three independent experiments; read-out: GABA-A Ki ± SEM
Description: The study was conducted in accordance with previously established protocols, and performed in duplicate. Rat brains were homogenized and prepared following the described methodologies. The assay was carried out directly on 96-well microplates containing 50 mM Tris-HCl buffer (pH 7.4) in a total volume of 300 μL. […] To determine nonspecific binding, 100 μM GABA was included in the mixture. The 96-well microplates were incubated at 0 °C for 10 min, followed by rapid filtration through FilterMate B glass fiber filters (PerkinElmer, USA) using a Harvester-96 MACH III FM (Tomtec, USA). The filters were gently dried in a microwave and sealed in plastic bags (PerkinElmer, USA). Each filter was then immersed in 10 mL of Ultima Gold MV liquid scintillation cocktail (PerkinElmer, USA). […] Ki values were calculated using the Cheng and Prusoff equation, and statistical analyses were conducted using GraphPad Prism (version 4.0, San Diego, CA, USA)

[4] = literature value; cited from earlier work

T1 sequence (P14867 28-456): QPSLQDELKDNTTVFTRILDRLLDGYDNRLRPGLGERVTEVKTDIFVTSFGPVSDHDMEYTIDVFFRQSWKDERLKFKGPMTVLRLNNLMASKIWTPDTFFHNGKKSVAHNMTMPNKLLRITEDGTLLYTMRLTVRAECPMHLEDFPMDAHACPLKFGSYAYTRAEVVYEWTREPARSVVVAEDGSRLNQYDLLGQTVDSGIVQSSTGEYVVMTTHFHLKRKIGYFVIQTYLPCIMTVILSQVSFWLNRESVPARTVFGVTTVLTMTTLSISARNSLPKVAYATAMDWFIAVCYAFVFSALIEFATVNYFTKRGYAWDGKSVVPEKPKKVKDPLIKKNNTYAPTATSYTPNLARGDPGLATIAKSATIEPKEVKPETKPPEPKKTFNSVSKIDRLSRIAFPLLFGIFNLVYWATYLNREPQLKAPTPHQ
T1 sequence (P47870 25-512 partner limits assumed): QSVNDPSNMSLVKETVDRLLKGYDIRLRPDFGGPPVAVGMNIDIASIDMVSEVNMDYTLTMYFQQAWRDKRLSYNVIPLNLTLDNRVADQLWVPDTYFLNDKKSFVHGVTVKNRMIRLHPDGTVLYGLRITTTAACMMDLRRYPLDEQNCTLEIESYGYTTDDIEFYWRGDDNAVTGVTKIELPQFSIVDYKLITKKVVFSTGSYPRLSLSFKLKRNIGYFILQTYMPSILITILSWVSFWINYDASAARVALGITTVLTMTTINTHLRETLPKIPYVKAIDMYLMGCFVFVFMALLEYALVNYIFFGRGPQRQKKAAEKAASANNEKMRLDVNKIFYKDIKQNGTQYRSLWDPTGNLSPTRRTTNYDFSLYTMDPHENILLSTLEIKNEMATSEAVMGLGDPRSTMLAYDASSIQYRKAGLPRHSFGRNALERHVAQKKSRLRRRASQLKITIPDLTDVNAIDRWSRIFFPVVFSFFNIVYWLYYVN
T1 sequence (P18507 40-475): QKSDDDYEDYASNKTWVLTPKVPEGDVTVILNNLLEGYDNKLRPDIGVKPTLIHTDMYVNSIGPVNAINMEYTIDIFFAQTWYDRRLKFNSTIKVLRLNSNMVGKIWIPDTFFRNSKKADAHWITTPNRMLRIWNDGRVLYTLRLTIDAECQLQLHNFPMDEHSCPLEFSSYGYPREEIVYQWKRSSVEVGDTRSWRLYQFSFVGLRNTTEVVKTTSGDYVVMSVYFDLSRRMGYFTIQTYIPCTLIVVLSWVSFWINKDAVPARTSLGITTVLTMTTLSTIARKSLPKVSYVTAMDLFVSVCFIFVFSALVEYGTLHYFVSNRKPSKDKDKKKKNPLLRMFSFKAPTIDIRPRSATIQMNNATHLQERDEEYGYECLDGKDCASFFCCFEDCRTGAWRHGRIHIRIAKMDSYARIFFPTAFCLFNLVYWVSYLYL

SMILES	Permeability Pe ± SD (PAMPA permeability assay)	X [%], percentage of dead cells, ToxiLight Assay (per cent of control with whole lysis cells) (SH-SY5Y cells [1]; 1E-04 M) [%]	X [%], percentage of dead cells, ToxiLight Assay (per cent of control with whole lysis cells) (SH-SY5Y cells [1]; 1E-05 M) [%]	X [%], percentage of dead cells, ToxiLight Assay (per cent of control with whole lysis cells) (SH-SY5Y cells [1]; 1E-06 M) [%]	X [%], percentage of dead cells, ToxiLight Assay (per cent of control with whole lysis cells) (SH-SY5Y cells [1]; 1E-07 M) [%]	X [%], percentage of dead cells, ToxiLight Assay (per cent of control with whole lysis cells) (SH-SY5Y cells [1]; 1E-08 M) [%]	X [%], percentage of dead cells, ToxiLight Assay (per cent of control with whole lysis cells) (SH-SY5Y cells [1]; 1E-09 M) [%]	X [%], percentage of dead cells, ToxiLight Assay (per cent of control with whole lysis cells) (SH-SY5Y cells [1]; 3E-05 M) [%]	X [%], percentage of dead cells, ToxiLight Assay (per cent of control with whole lysis cells) (SH-SY5Y cells [1]; 3E-06 M) [%]	Reduction of intracellular calcium levels (SH-SY5Y cells [2]) [%]	further results
Cc1ccc2nc(-c3ccc(F)cc3)c(CC(=O)N3CCSC3)n2c1 [Compound 15, 2-[2-(4-Fluorophenyl)-6-methylimidazo[1,2-a]pyridin-3-yl]-1-(1,3-thiazolidin-3-yl)ethan-1-one]	7.89 ± 1.35 ·10^–6 cm/s	67	108	110	107	108	101	96	105	≤ 50	Papp at 5 h, 100 μM (PAMPA permeability assay; pH 7.4, PAMPA, read-out: Permeability Pe ± SD): > 4 ×10⁻⁶ cm/s; EC50 (α1β2γ2 GABA-A receptor): 743 ± 136 nM; X [%], percentage of live cells, PrestoBlue Assay (per cent of vehicle DMSO) (SH-SY5Y cells [3]; 1E-04 M): 14%; X [%], percentage of live cells, PrestoBlue Assay (per cent of vehicle DMSO) (SH-SY5Y cells [3]; 1E-05 M): 12%; X [%], percentage of live cells, PrestoBlue Assay (per cent of vehicle DMSO) (SH-SY5Y cells [3]; 1E-06 M): 16%; X [%], percentage of live cells, PrestoBlue Assay (per cent of vehicle DMSO) (SH-SY5Y cells [3]; 1E-07 M): 14%; X [%], percentage of live cells, PrestoBlue Assay (per cent of vehicle DMSO) (SH-SY5Y cells [3]; 1E-08 M): 15%; X [%], percentage of live cells, PrestoBlue Assay (per cent of vehicle DMSO) (SH-SY5Y cells [3]; 1E-09 M): 14%; X [%], percentage of live cells, PrestoBlue Assay (per cent of vehicle DMSO) (SH-SY5Y cells [3]; 3E-05 M): 15%; X [%], percentage of live cells, PrestoBlue Assay (per cent of vehicle DMSO) (SH-SY5Y cells [3]; 3E-06 M): 15%
Cc1ccc(-c2nc3ccc(C)cn3c2CC(=O)N(C)C)cc1 [zolpidem, reference compound]	21.6 ± 1.26 ·10^–6 cm/s	71	92	98	100	101	100	90	96	47	Ki (GABA-A receptor): 37.8 ± 2.7 nM; plasma half-life (t0,5) in humans [4]: 2–3 h and ≈ 2 h
